From PubChem BioAssay AID588780 (Sanford-Burnham Center for Chemical Genomics, 2011)
The source made the active and inactive calls.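 Rule for the calls: active = compounds whose fitted half-maximal concentration in the cell-protection dose series is at or below a set limit; inactive = the rest.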

Each compound was assayed on H9c2 cardiomyocytes, 2-deoxyglucose stress, ATP luminescence, 2 h (assay: H9c2 cell survival under 2-deoxyglucose stress – uHTS hits, dose response (AID 588780)).
With `COc1ccc(-c2oc3c(OC)c(OC)c(OC)c(O)c3c(=O)c2OC)cc1OC` the IC50 was > 79 µM (inactive). `CNS(=O)(=O)c1cc2c3c(cccc3c1)C(=O)NC2=O` was tested, and the IC50 was > 79 µM (inactive). With `CC(=O)c1cccc(-c2cnc3c(NC=O)cc(-c4ccc(F)cc4)cn23)c1` the IC50 was > 79 µM (inactive). `CC1(C)Oc2ccc3ccc(=O)oc3c2/C(=C/Nc2ccccn2)C1=O` was tested, and the IC50 was 10.2 µM. `COC(=O)c1ccc(C(NC(=O)OCc2ccccc2)/C(C)=C/[C@@H](C)C(=O)NCc2ccc(OC)c(OC)c2)cc1` (stereo not given in full) showed an IC50 of 22.8 µM. For `CCCNC(=O)c1ccc2c(=O)c(O)c(-c3ccc(C)cc3)[nH]c2c1`, the IC50 was > 79 µM (inactive). `Fc1ccc(CSc2ccc3nnc(-c4cccnc4)n3n2)cc1` was tested, and the IC50 was 26 µM. `O=C(COC(=O)c1ccc([N+](=O)[O-])s1)Nc1ccc(Cl)cn1` was tested, and the IC50 was > 79 µM (inactive). Compound `O=C(N/N=C/c1cn(-c2ccccc2)nc1-c1cccnc1)c1ccccc1` has an IC50 of 12.8 µM. In the case of `Cc1ccc2c(c1)nc1c3ccccc3nc(-c3ccccc3N)n21`, the IC50 is reported as > 79 µM (inactive). Compound `O=C1NC(Cc2ccc(O)cc2)c2nc3ccc(F)cc3c(=O)n2-c2cc3ccccc3cc21` (stereo not given) has an IC50 of 12.4 µM. `Brc1ccc(-c2nn3c(-c4ccco4)nnc3s2)o1` showed an IC50 of 20 µM. With `CC1CN(c2nn3c(=O)c4ccccc4nc3c3ccccc23)CC(C)O1` (stereo not given) the IC50 was > 79 µM (inactive). With `CCOC(=O)C1CCN(c2cc3c(cc2NC(=O)c2ccccc2Cl)n(C)c(=O)n3C)CC1` the IC50 was 11.7 µM. `CSc1nsc(SC)c1C(=O)N1CCN(S(=O)(=O)c2ccc(C)cc2)C1C(C)C` (stereo not given) was tested, and the IC50 was 21.7 µM. With `CC1(C)CC(=O)C2=C(C1)N(CCN1CCOCC1)C1=C(C(=O)CC(C)(C)C1)C2c1ccc(Cl)cc1` the IC50 was 31.3 µM (inactive). For `COc1cc(/C=N/NC(=O)c2ccncc2)ccc1OC(=O)c1ccccc1Cl`, the IC50 was > 79 µM (inactive). For `COc1ccccc1OCCSc1nc2ccccc2c(=O)[nH]1`, the IC50 was > 79 µM (inactive). For `COc1ccc(C(=O)Nc2cc(C)nn2-c2nc3ccccc3[nH]2)c(OC)c1`, the IC50 was 12.3 µM. `CC(=O)c1ccc(N2CCN(C(=O)c3cc(-c4cccnc4)nc4ccc(Br)cc34)CC2)cc1` was tested, and the IC50 was 11 µM. With `COc1cc(/C=C/c2nnc3c4ccccc4ncn23)cc(OC)c1OC` the IC50 was > 79 µM (inactive). `O=C(COc1ccc(Cl)cc1)NCc1n[nH]c(=O)c2ccccc12` was tested, and the IC50 was > 79 µM (inactive). `CCOc1ccccc1N1CC(O)=C(c2nc3ccccc3s2)C1=N` was tested, and the IC50 was > 79 µM (inactive). `CCC1(C)Cc2c(sc3nc(NN)n(C)c(=O)c23)CO1` (stereo not given) was tested, and the IC50 was > 79 µM (inactive). In the case of `Cc1ccc(-c2nnc(NCc3nc4ccccc4[nH]3)c3ccccc23)cc1S(=O)(=O)N1CCOCC1`, the IC50 is reported as > 79 µM (inactive). With `O=C(CCc1nc2ccccc2c(=O)[nH]1)Nc1nc(-c2cccs2)cs1` the IC50 was > 79 µM (inactive). `CCOC(=O)Cc1csc(NC(=O)NC2(C(F)(F)F)Oc3ccc(Cl)cc3O2)n1` (stereo not given) was tested, and the IC50 was > 79 µM (inactive). With `COc1cc(NC(=O)c2cc([N+](=O)[O-])ccc2NC(=O)CN2CCN(c3ccccn3)CC2)cc(OC)c1` the IC50 was > 79 µM (inactive). Compound `C[C@H]1Cn2cnc(C(=O)N[C@@H](Cc3c[nH]c4ccccc34)C(=O)OC(C)(C)C)c2C(=O)N1` has an IC50 of 21 µM. For `COc1cc(C(=O)NCCCNc2nc3cc(C)cc(C)c3cc2C#N)cc(OC)c1OC`, the IC50 was 45.6 µM (inactive). For `CSc1nc2ccc(S(=O)(=O)Nc3c(C)n(C)n(-c4ccccc4)c3=O)cc2s1`, the IC50 was > 79 µM (inactive). In the case of `NC(=O)C1=C(c2ccccc2)c2ccccc2C1=O`, the IC50 is reported as > 79 µM (inactive). In the case of `CC(OC(=O)Cc1n[nH]c(=O)c2ccccc12)C(=O)Nc1ccc(F)cc1Cl` (stereo not given), the IC50 is reported as > 79 µM (inactive). `COc1ccc(Nc2nnc(-c3ccc(O)cc3)c3ccccc23)cc1C(N)=O` was tested, and the IC50 was > 79 µM (inactive). In the case of `COC(=O)c1ccc(Cn2c(C)c(C(=O)NCc3cccs3)sc2=O)o1`, the IC50 is reported as > 79 µM (inactive). For `CCn1c(SCC(=O)N2CCN(c3ccccc3)CC2)nc2c(c1=O)SC(C)C2` (stereo not given), the IC50 was > 79 µM (inactive). With `CCc1c(C)nc(Nc2nc(C)c3ccc(OC)cc3n2)[nH]c1=O` the IC50 was > 79 µM (inactive). In the case of `COCCn1cnc2c(c1=O)c1nc3ccccc3nc1n2/N=C/c1cccc(OC)c1`, the IC50 is reported as 38 µM (inactive). `CC(NC(=O)c1cc2c(=O)n(C)c3ccccc3c2n1C)c1ccc2c(c1)OCCO2` (stereo not given) was tested, and the IC50 was 30.5 µM (inactive). With `O=C(NN=Cc1ccc(N2CCOCC2)s1)c1ccc([N+](=O)[O-])cc1` the IC50 was > 79 µM (inactive). In the case of `O=C(NN=Cc1cccc([N+](=O)[O-])c1)c1cc(-c2cccnc2)nc2ccccc12`, the IC50 is reported as > 79 µM (inactive). `COc1ccc2cc3cc(C(=O)Nc4cc(OC)c(OC)c(OC)c4)oc3nc2c1` showed an IC50 of 27.5 µM. With `CCOC(=O)c1cccc(NC(=O)CSc2nc3ccccc3c(=O)n2CCOC)c1` the IC50 was 34.1 µM (inactive). In the case of `COc1cccc(/C=N/NC(=O)c2oc3nc(-c4ccccc4)cc(-c4ccco4)c3c2N)c1`, the IC50 is reported as > 79 µM (inactive). For `CCC(c1nnnn1Cc1ccco1)N(Cc1cc2cc(C)cc(C)c2[nH]c1=O)CC1CCCO1` (stereo not given), the IC50 was > 79 µM (inactive). For `COC(=O)c1cc2c(C)c(C)c3ccccn3c-2c1C(=O)OC`, the IC50 was > 79 µM (inactive). In the case of `COc1ccccc1C(=O)NC(=O)COC(=O)Cn1[nH]c(=O)c2ccccc2c1=O`, the IC50 is reported as > 79 µM (inactive). With `Cc1ccc(-c2n[nH]c(=O)c3ccccc23)cc1S(=O)(=O)NC(C)(C)C` the IC50 was > 79 µM (inactive). Compound `CCOC(=O)C1=C(C)NC(C)=C(C(=O)OCCNC(=O)c2cccnc2)C1c1cccc([N+](=O)[O-])c1` (stereo not given) has an IC50 of 28.6 µM. `COc1ccccc1NS(=O)(=O)c1ccc2oc(SCC(=O)N3CCNC3=O)nc2c1` was tested, and the IC50 was 36.5 µM (inactive). With `Cc1ccc2sc(NNC(=O)c3ccc4c(c3)OCCO4)nc2c1C` the IC50 was > 79 µM (inactive). In the case of `CCOC(=O)N1CCC(N2C(=O)c3ccccc3C2Nc2cc(OC)c(OC)c(OC)c2)CC1` (stereo not given), the IC50 is reported as > 79 µM (inactive). In the case of `CCSc1nnc(N)s1`, the IC50 is reported as > 79 µM (inactive). For `COc1ccccc1OCC(=O)Nc1sc2c(c1C(=O)NCC1CCCO1)CCC2` (stereo not given), the IC50 was > 79 µM (inactive). `O=c1[nH]c(-c2cccnc2)nc2ccccc12` was tested, and the IC50 was > 79 µM (inactive). With `COc1cc2c(cc1OC)CN(CC(=O)Nc1ccccc1C#N)CC2` the IC50 was 44.1 µM (inactive). `CC(=O)c1c(C)n(-c2cccc(Cl)c2)c2ccc(O)cc12` showed an IC50 of 16.8 µM. With `CN(C)S(=O)(=O)c1cccc(NC(=O)COC(=O)c2ccc([N+](=O)[O-])o2)c1` the IC50 was > 79 µM (inactive). For `O=C(NCc1ccco1)C(c1ccccc1)N(C(=O)Cc1cccs1)c1ccccc1F` (stereo not given), the IC50 was > 79 µM (inactive). Compound `O=C(CN1C(=O)C2CC=CCC2C1=O)Nc1nc(-c2ccc(F)cc2)cs1` (stereo not given) has an IC50 of 10.8 µM. In the case of `O=C(CN(C(=O)Cn1nnc(-c2cccs2)n1)c1cnc2ccccc2c1)NCC1CCCO1` (stereo not given), the IC50 is reported as > 79 µM (inactive). In the case of `Cc1c(Cl)cnc(NC(=O)COC(=O)c2ccc([N+](=O)[O-])s2)c1Cl`, the IC50 is reported as > 79 µM (inactive). With `O=C(CCc1nc2ccccc2c(=O)[nH]1)N1CCN(S(=O)(=O)c2ccc(F)cc2)CC1` the IC50 was > 79 µM (inactive). `CC(C)(C)c1ccc(OCC(=O)Nc2ccc3c4c(cccc24)C(=O)NC3=O)cc1` was tested, and the IC50 was > 79 µM (inactive). In the case of `Cc1cc(NC(=O)COC(=O)COc2ccc3c4c(c(=O)oc3c2)CCC4)no1`, the IC50 is reported as > 79 µM (inactive). For `Nc1c(C(=O)NC2CC2)c2nc3ccccc3nc2n1-c1ccc2c(c1)OCO2`, the IC50 was > 79 µM (inactive). With `CC(=O)NCc1ccc(-c2csc(NC(=O)CCc3nc4ccccc4c(=O)[nH]3)n2)s1` the IC50 was > 79 µM (inactive). For `CCN(c1ccc(NC(=O)COC(=O)c2ccc([N+](=O)[O-])o2)cc1)C(C)C`, the IC50 was > 79 µM (inactive). For `CCn1c(SCC(=O)Nc2ccccc2N2CCCCC2)nc2c1c(=O)n(C)c(=O)n2C`, the IC50 was 12.6 µM. With `CCCn1nc(C(=O)Nc2nc(-c3ccccn3)cs2)c2ccccc2c1=O` the IC50 was > 79 µM (inactive). With `CCOc1cccc(-c2nn3c(-c4ccccn4)nnc3s2)c1` the IC50 was > 79 µM (inactive). `Cc1ccc2nc(SCc3nc4ccccc4c(=O)[nH]3)[nH]c2c1` was tested, and the IC50 was > 79 µM (inactive). With `O=C(CCCSc1nc2sc3c(c2c(=O)[nH]1)CCC3)NCCO` the IC50 was > 79 µM (inactive). For `CCn1c(=O)cc(OCC(=O)Nc2ccccc2C#N)c2ccccc21`, the IC50 was > 79 µM (inactive). With `COc1ccc(-c2ccc3c(c2)S(=O)(=O)c2cccc(C(=O)N4CCN(c5c(Cl)cncc5Cl)CC4)c2C3=O)cc1OC` the IC50 was > 79 µM (inactive). `N#Cc1c(-c2ccco2)cc(-c2ccccn2)nc1N` gave an IC50 of 22.7 µM. Work on `Cc1cccc(C)c1OCCn1nc(C(=O)O)c2ccccc2c1=O` yielded an IC50 of 10.8 µM. For `CC(=O)c1ccc(-c2ccc(C(=O)Nc3nc(-c4ccccn4)cs3)o2)cc1`, the IC50 was 44.7 µM (inactive). For `Cc1c(N=Cc2cc(Br)cc(Br)c2O)cccc1C(=O)O`, the IC50 was > 79 µM (inactive). In the case of `COc1ccc(CSc2nc3ccccc3c(=O)[nH]2)cc1F`, the IC50 is reported as > 79 µM (inactive). `O=C(N/N=C/c1ccc(-c2cccc([N+](=O)[O-])c2)o1)c1ccc([N+](=O)[O-])cc1` was tested, and the IC50 was > 79 µM (inactive). `CCCc1cc2c(cc1NC(=O)c1ccc(Br)cc1)OCO2` gave an IC50 of 29.3 µM. With `Cc1ccccc1NC(=O)COc1cccc2c1CCNC2=O` the IC50 was > 79 µM (inactive). In the case of `Fc1ccc(-c2ccc(-c3nn4c(-c5ccco5)nnc4s3)o2)cc1`, the IC50 is reported as > 79 µM (inactive). With `COc1cc(OC)cc(C(=O)Nc2ccc(-c3nc4ccccc4o3)cc2)c1` the IC50 was > 79 µM (inactive). `O=C(Cn1[nH]c(=O)c2ccccc2c1=O)NC1CCCCCC1` was tested, and the IC50 was > 79 µM (inactive). With `COc1cc(OC)cc(C(=O)NNC(=O)CCc2nc3ccccc3c(=O)[nH]2)c1` the IC50 was > 79 µM (inactive). `O=C(COC(=O)c1c2c(nc3ccccc13)/C(=C/c1cccc([N+](=O)[O-])c1)CCC2)NC1CCS(=O)(=O)C1` (stereo not given) showed an IC50 of 13.4 µM. For `O=C(CSc1nc2ccccc2c(=O)[nH]1)c1ccccc1`, the IC50 was > 79 µM (inactive). `Oc1c(Cl)cc(Cl)cc1C=Nc1ccc(N2CCOCC2)cc1` was tested, and the IC50 was 31.5 µM (inactive). `O=C(N/N=C/c1cn(-c2ccccc2)nc1-c1cccs1)c1ccccc1F` was tested, and the IC50 was > 79 µM (inactive). For `CC(C(=O)NC1CCCC1)N(C(=O)Cn1nnc(-c2ccc(F)cc2)n1)c1ccccc1F` (stereo not given), the IC50 was > 79 µM (inactive). For `CS(=O)(=O)Nc1ccc(-c2ccc3nccn3c2)cc1`, the IC50 was > 79 µM (inactive). `CC1Cc2ccccc2N1C(=O)Cn1nc(C(=O)O)c2ccccc2c1=O` (stereo not given) was tested, and the IC50 was > 79 µM (inactive). With `COc1ccc(CC(=O)N/N=C(\C)c2ccccn2)cc1` the IC50 was 26.7 µM.
